What was measured:
HIF-PH2 (EGLN1) = target: T1, HIF-PH2 (EGLN1) (Homo sapiens, UniProt Q9GZT9); assay: HIF-PH2 (PHD2) assay (fluorescence polarization method); format: biochemical; conditions: 200 nM HIF PH2 enzyme, 50 nM peptide substrate, 30° C. one hour; read-out: IC50 (HIF PH2 inhibition activity)
T1 construct: made in house; host or cells: E. coli
Method: HIF-PH2 (EGLN1) was expressed from E. coli cells, and purified using two process: an Ni-affinity chromatography column and a size-exclusion chromatography column.
To evaluate activities of an HIF PH2 inhibitor, HIF PH2 enzyme that was first overexpressed by genetic recombination and then purified was used to perform an enzyme reaction. […] At this time, 2 mM ascorbic acid and 5 mM ketoglutarate with 100 μM FeCl2 or without FeCl2, were used together with crude enzyme. A concentration of HIF PH2 inhibitor to be tested was treated and reacted at 30° C. for one hour. After the reaction, the resulting reaction product was boiled at 95° C. for one minute to suppress the enzyme reaction.
To determine whether prolyl hydroxylation occurs in the substrate as the secondary reaction, 500 nM GST-VBC (GST-VHL-Elongin B-Elongin C) protein was added to a reaction buffer (50 mM Tris-Cl (pH8.0), 120 mM NaCl, 0.5% Nonidet P40), and a GST-VBC binding reaction was carried out at room temperature for 30 minutes.
A fluorescence polarization value of a sample that is not treated with the HIF PH2 inhibitor was used as 100% control, and the activities of the HIF PH2 inhibitor were measured as percentage of the remaining HIF PH2 enzyme activity in samples treated with a concentration of the HIF PH2 inhibitor to be tested.

EPO = assay: Human EPO immunoassay (ELISA of Hep3B culture media); format: cell-based; conditions: Hep3B cells, compound at 100 μM, 24-hour incubation; for EPO (mIU/ml): culture media ELISA; for fold induction at 100 µM: Homo sapiens, read-out: Fold Induction over control (EPO Induction)
Method: Human cells derived from hepatocarcinoma (Hep3B) tissue (see, e.g., American Type Culture Collection, Manassas Va.) were grown at 37° C., 20% O2, 5% CO2 in DMEM (GIBCO)+10% FBS, 4.5 g/L D-Glucose; L-Glutamate and 110 mg/L sodium pyruvate. Ninety-six well plates were seeded with 4×10^4 HEP3B cells/well. The media was removed and replaced with DMEM+10% FBS. Compounds were added to wells at concentrations between 1 μM-100 μM for a 24-hour incubation. Cell culture media was harvested and EPO concentration was determined using a Human Erythropoietin Quantikine IVD ELISA Kit (R&D Systems®, Minneapolis, Minn.) following the manufacturer's instructions for the benchtop assay.

T1 sequence (Q9GZT9 whole entry, species assumed): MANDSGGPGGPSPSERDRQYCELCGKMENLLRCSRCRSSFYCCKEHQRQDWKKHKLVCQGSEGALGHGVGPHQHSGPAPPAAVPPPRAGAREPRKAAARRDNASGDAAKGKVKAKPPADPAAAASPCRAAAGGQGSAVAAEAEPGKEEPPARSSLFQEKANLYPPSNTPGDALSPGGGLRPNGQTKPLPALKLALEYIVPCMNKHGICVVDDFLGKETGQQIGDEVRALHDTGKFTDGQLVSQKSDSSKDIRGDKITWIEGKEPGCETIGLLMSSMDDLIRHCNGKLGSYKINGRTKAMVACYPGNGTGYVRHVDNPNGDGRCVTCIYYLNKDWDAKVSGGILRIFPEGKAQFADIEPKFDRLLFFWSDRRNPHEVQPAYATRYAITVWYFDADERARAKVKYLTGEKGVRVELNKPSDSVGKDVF

SMILES	IC50 (HIF-PH2 (EGLN1)) [µM]	EPO (mIU/ml) (EPO)	fold induction at 100 µM (EPO)
O=C(NCc1cccnc1)c1nc(Br)c2c(sc3ccccc32)c1O [1-Bromo-4-hydroxy-benzo[4,5]thieno[3,2-c]pyridine-3-carboxylic acid (pyridin-3-ylmethyl)-amide]	26 to 100	–	–
C[C@H](NC(=O)c1ncc2ccoc2c1O)C(=O)O [(S)-2-[(7-Hydroxy-furo[3,2-c]pyridine-6-carbonyl)-amino]-propionic acid]	> 201	–	–
COC(=O)CNC(=O)c1nc(Cl)c2c(ccn2S(=O)(=O)c2ccccc2)c1O [[(1-Benzenesulfonyl-7-chloro-4-hydroxy-1H-pyrrolo[2,3-c]pyridine-5-carbonyl)-amino]-acetic acid methyl ester]	< 25	–	–
O=C(O)CNC(=O)c1nc(Cl)c2c(ccn2S(=O)(=O)c2ccccc2)c1O [[(1-Benzenesulfonyl-7-chloro-4-hydroxy-1H-pyrrolo[2,3-c]pyridine-5-carbonyl)-amino]-acetic acid]	< 25	I (I = 0-20 mIU/ml)	< 20
O=C(O)CNC(=O)c1nc(Br)c2c(sc3ccccc32)c1F [[(1-Bromo-4-fluoro-benzo[4,5]thieno[3,2-c]pyridine-3-carbonyl)-amino]-acetic acid]	< 25	–	–
O=C(O)CNC(=O)c1nc(Cl)c2c(sc3ccc(S(=O)(=O)Cc4ccccc4)cc32)c1O [[(1-Chloro-4-hydroxy-8-phenylmethanesulfonyl-benzo[4,5]thieno[3,2-c]pyridine-3-carbonyl)-amino]-acetic acid]	26 to 100	–	–
Nc1c(C(=O)NCC(=O)O)nc(Br)c2c1sc1ccccc12 [[(4-Amino-1-bromo-benzo[4,5]thieno[3,2-c]pyridine-3-carbonyl)-amino]-acetic acid]	> 201	–	–
O=C(O)CN(O)C(=O)c1ncc2c(sc3ccccc32)c1Cl [[(4-Chloro-benzo[4,5]thieno[3,2-c]pyridine-3-carbonyl)-hydroxy-amino]-acetic acid]	> 201	–	–
Cc1nc(C(=O)NCC(=O)O)c(O)c2sc3ccccc3c12 [[(4-Hydroxy-1-methyl-benzo[4,5]thieno[3,2-c]pyridine-3-carbonyl)-amino]-acetic acid]	–	J (J = 21-40 mIU/ml)	> 71
O=C(O)CNC(=O)c1ncc2c(cnn2-c2ccccn2)c1O [[(4-Hydroxy-1-pyridin-2-yl-1H-pyrazolo[3,4-c]pyridine-5-carbonyl)-amino]-acetic acid]	< 25	I (I = 0-20 mIU/ml)	< 20
O=C(O)CNC(=O)c1ncc2c(oc3ccccc32)c1O [[(4-Hydroxy-benzo[4,5]furo[3,2-c]pyridine-3-carbonyl)-amino]-acetic acid]	–	I (I = 0-20 mIU/ml)	< 20
O=C(O)CNC(=O)c1ncc2c(sc3ccccc32)c1O [[(4-Hydroxy-benzo[4,5]thieno[3,2-c]pyridine-3-carbonyl)-amino]-acetic acid]	–	I (I = 0-20 mIU/ml)	< 20
O=C(O)CNC(=O)c1nc(Cl)c2[nH]ccc2c1O [[(7-Chloro-4-hydroxy-1H-pyrrolo[2,3-c]pyridine-5-carbonyl)-amino]-acetic acid]	> 201	–	–
O=C(O)CNC(=O)c1ncc2c(-c3ccccc3)coc2c1O [[(7-Hydroxy-3-phenyl-furo[3,2-c]pyridine-6-carbonyl)-amino]-acetic acid]	101 to 200	–	–
O=C(O)CNC(=O)c1ncc2ccoc2c1O [[(7-Hydroxy-furo[3,2-c]pyridine-6-carbonyl)-amino]-acetic acid]	> 201	–	–
O=C(O)CNC(=O)c1nc(Cl)c2c(sc3ccc(S(=O)(=O)c4ccccc4)cc32)c1O [[(8-Benzenesulfonyl-1-chloro-4-hydroxy-benzo[4,5]thieno[3,2-c]pyridine-3-carbonyl)-amino]-acetic acid]	< 25	–	–
O=C(O)CN(O)C(=O)c1ncc2c(sc3ccccc32)c1O [[Hydroxy-(4-hydroxy-benzo[4,5]thieno[3,2-c]pyridine-3-carbonyl)-amino]-acetic acid]	101 to 200	–	–

Continued, in another order:

IC50 (HIF-PH2 (EGLN1)) [µM]	SMILES	EPO (mIU/ml) (EPO)	fold induction at 100 µM (EPO)
< 25	O=C(O)CNC(=O)c1nc(Cl)c2c(sc3cc(O)ccc32)c1O [[(1-Chloro-4,7-dihydroxy-benzo[4,5]thieno[3,2-c]pyridine-3-carbonyl)-amino]-acetic acid]	I (I = 0-20 mIU/ml)	< 20
< 25	O=C(O)CNC(=O)c1nc(Cl)c2c(sc3ccc(O)cc32)c1O [[(1-Chloro-4,8-dihydroxy-benzo[4,5]thieno[3,2-c]pyridine-3-carbonyl)-amino]-acetic acid]	I (I = 0-20 mIU/ml)	< 20
< 25	CC(C)Oc1ccc2c(c1)sc1c(O)c(C(=O)NCC(=O)O)nc(Cl)c12 [[(1-Chloro-4-hydroxy-7-isopropoxy-benzo[4,5]thieno[3,2-c]pyridine-3-carbonyl)-amino]-acetic acid]	L (L = >61 mIU/ml)	21 to 50
< 25	COc1ccc2c(c1)sc1c(O)c(C(=O)NCC(=O)O)nc(Cl)c12 [[(1-Chloro-4-hydroxy-7-methoxy-benzo[4,5]thieno[3,2-c]pyridine-3-carbonyl)-amino]-acetic acid]	I (I = 0-20 mIU/ml)	21 to 50
< 25	O=C(O)CNC(=O)c1nc(Cl)c2c(sc3ccc(C(F)(F)F)cc32)c1O [[(1-Chloro-4-hydroxy-8-trifluoromethyl-benzo[4,5]thieno[3,2-c]pyridine-3-carbonyl)-amino]-acetic acid]	J (J = 21-40 mIU/ml)	21 to 50
< 25	CCN(CC)c1ccc2sc3c(O)c(C(=O)NCC(=O)O)nc(Cl)c3c2c1 [[(1-Chloro-8-diethylamino-4-hydroxy-benzo[4,5]thieno[3,2-c]pyridine-3-carbonyl)-amino]-acetic acid]	J (J = 21-40 mIU/ml)	21 to 50
26 to 100	CCS(=O)(=O)c1ccc2sc3c(O)c(C(=O)NCC(=O)O)nc(Cl)c3c2c1 [[(1-Chloro-8-ethanesulfonyl-4-hydroxy-benzo[4,5]thieno[3,2-c]pyridine-3-carbonyl)-amino]-acetic acid]	–	–
< 25	CCNc1ccc2sc3c(O)c(C(=O)NCC(=O)O)nc(Cl)c3c2c1 [[(1-Chloro-8-ethylamino-4-hydroxy-benzo[4,5]thieno[3,2-c]pyridine-3-carbonyl)-amino]-acetic acid]	K (K = 41-60 mIU/ml)	51 to 70
101 to 200	CC(C)Oc1c(C(=O)NCC(=O)O)nc(Cl)c2c1sc1ccc(O)cc12 [[(1-Chloro-8-hydroxy-4-isopropoxy-benzo[4,5]thieno[3,2-c]pyridine-3-carbonyl)-amino]-acetic acid]	–	–
101 to 200	COc1c(C(=O)NCC(=O)O)nc(Cl)c2c1sc1ccc(O)cc12 [[(1-Chloro-8-hydroxy-4-methoxy-benzo[4,5]thieno[3,2-c]pyridine-3-carbonyl)-amino]-acetic acid]	–	–
< 25	Cc1nc(C(=O)NCC(=O)O)c(O)c2sc3cc(F)ccc3c12 [[(7-Fluoro-4-hydroxy-1-methyl-benzo[4,5]thieno[3,2-c]pyridine-3-carbonyl)-amino]-acetic acid]	L (L = >61 mIU/ml)	21 to 50
< 25	O=C(O)CNC(=O)c1nc(Cl)c2c(sc3ccc([S+]([O-])c4ccccc4)cc32)c1O (centres unmarked) [[(8-Benzenesulfinyl-1-chloro-4-hydroxy-benzo[4,5]thieno[3,2-c]pyridine-3-carbonyl)-amino]-acetic acid]	–	–
< 25	O=C(O)CNC(=O)c1nc(Cl)c2c(sc3ccc(NS(=O)(=O)c4ccccc4)cc32)c1O [[(8-Benzenesulfonylamino-1-chloro-4-hydroxy-benzo[4,5]thieno[3,2-c]pyridine-3-carbonyl)-amino]-acetic acid]	I (I = 0-20 mIU/ml)	< 20
< 25	O=C(O)CNC(=O)c1nc(Cl)c2c(sc3ccc(NCc4ccccc4)cc32)c1O [[(8-Benzylamino-1-chloro-4-hydroxy-benzo[4,5]thieno[3,2-c]pyridine-3-carbonyl)-amino]-acetic acid]	–	–

Reference: patent US20110028507A1, “PYRIDINE DERIVATIVES AND METHODS OF USE THEREOF” (CRYSTALGENOMICS, INC., priority 2007, published 2011)
